Reference: PubChem BioAssay (NCI)
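Protocol summary: plate cells (96-well), add compound at 5 concentrations, incubate 48 h, interpolate endpoints linearly. TGI: concentration producing complete growth inhibition.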

Legend:
Assay in all cases: NCI anticancer screen, dose series, 48 h
786-0 renal = test system: 786-0 renal
A549 NSCLC = test system: A549 NSCLC
ACHN renal = test system: ACHN renal
CAKI-1 renal = test system: CAKI-1 renal
COLO 205 colon = test system: COLO 205 colon
DLD-1 colon = test system: DLD-1 colon
DMS 114 small cell lung = test system: DMS 114 small cell lung
DMS 273 small cell lung = test system: DMS 273 small cell lung
HCC-2998 colon = test system: HCC-2998 colon
HCT-116 colon = test system: HCT-116 colon
HCT-15 colon = test system: HCT-15 colon
HL-60(TB) leukemia = test system: HL-60(TB) leukemia
HOP-92 NSCLC = test system: HOP-92 NSCLC
HT29 colon = test system: HT29 colon
IGROV1 ovarian = test system: IGROV1 ovarian
K-562 leukemia = test system: K-562 leukemia
KM12 colon = test system: KM12 colon
KM20L2 colon = test system: KM20L2 colon
LOX IMVI melanoma = test system: LOX IMVI melanoma
LXFL 529 NSCLC = test system: LXFL 529 NSCLC
M14 melanoma = test system: M14 melanoma
M19-MEL melanoma = test system: M19-MEL melanoma
MALME-3M melanoma = test system: MALME-3M melanoma
MOLT-4 leukemia = test system: MOLT-4 leukemia
NCI-H226 lung = test system: NCI-H226 lung
NCI-H23 lung = test system: NCI-H23 lung
NCI-H460 lung = test system: NCI-H460 lung
NCI-H522 lung = test system: NCI-H522 lung
OVCAR-3 ovarian = test system: OVCAR-3 ovarian
OVCAR-4 ovarian = test system: OVCAR-4 ovarian
OVCAR-5 ovarian = test system: OVCAR-5 ovarian
OVCAR-8 ovarian = test system: OVCAR-8 ovarian
RPMI-8226 leukemia = test system: RPMI-8226 leukemia
RXF 393 renal = test system: RXF 393 renal
RXF-631 renal = test system: RXF-631 renal
SF-268 CNS = test system: SF-268 CNS
SF-295 CNS = test system: SF-295 CNS
SF-539 CNS = test system: SF-539 CNS
SK-MEL-28 melanoma = test system: SK-MEL-28 melanoma
SK-MEL-5 melanoma = test system: SK-MEL-5 melanoma
SK-OV-3 ovarian = test system: SK-OV-3 ovarian
SN12C renal = test system: SN12C renal
SNB-19 CNS = test system: SNB-19 CNS
SNB-75 CNS = test system: SNB-75 CNS
SNB-78 CNS = test system: SNB-78 CNS
SR leukemia = test system: SR leukemia
SW-620 colon = test system: SW-620 colon
TK-10 renal = test system: TK-10 renal
U251 CNS = test system: U251 CNS
UACC-257 melanoma = test system: UACC-257 melanoma
UACC-62 melanoma = test system: UACC-62 melanoma
UO-31 renal = test system: UO-31 renal
XF 498 CNS = test system: XF 498 CNS
A498 renal = test system: A498 renal
CCRF-CEM leukemia = test system: CCRF-CEM leukemia
EKVX NSCLC = test system: EKVX NSCLC
HOP-18 NSCLC = test system: HOP-18 NSCLC
HOP-62 NSCLC = test system: HOP-62 NSCLC
SK-MEL-2 melanoma = test system: SK-MEL-2 melanoma

Measured: TGI

CC1(C)C(=NN=C(N)N)C(C)(C)C1=NN=C(N)N
not listed: A498 renal | CCRF-CEM leukemia | EKVX NSCLC | HOP-18 NSCLC | HOP-62 NSCLC | SK-MEL-2 melanoma
> 100 µM: all other assays above

FC(F)(F)c1cccc2ns[s+]c12
not listed: DMS 114 small cell lung | HCT-15 colon | HOP-92 NSCLC | RPMI-8226 leukemia
> 100 µM: all other assays above
